The values that follow come from patent US6949536B2, “Sulfonylbenzene compounds as anti-inflammatory/analgesic agents” (Pfizer, Inc., priority 1998, dated 2005).

Counter-ions that a name gives are not always drawn.

The compound `CS(=O)(=O)c1ccc(C2=C(c3ccc(-c4ccoc4)cc3)C(=O)OC2)cc1` [Example 34, 3-[4-(3-Furyl)phenyl]-4-[4-(methylsulfonyl)phenyl]-2-(5H)-furanone] yielded a melting point of 188 to 190 °C. The compound `Cc1ccc(-c2ccc(S(C)(=O)=O)cc2)n1-c1ccc(-c2ccoc2)c(Cl)c1` [Example 41, 1-[3-Chloro-4-(3-furyl)phenyl]-2-methyl-5-[4-(methylsulfonyl)phenyl]-1H-pyrrole] gave a melting point of 165 to 168 °C.

Compound `CS(=O)(=O)c1ccc(-n2nc(C(F)(F)F)cc2-c2ccc(-n3ccnc3)cc2)cc1` [Example 66, 5-[4-(1-Imidazolyl)phenyl]-1-[4-(methylsulfonyl)phenyl]-3-trifluoromethyl-1H-pyrazol] showed a melting point of 183 to 184 °C. On to `Cc1cc(-c2cc(C(F)(F)F)nn2-c2ccc(S(N)(=O)=O)c(F)c2)ccc1-c1ccco1` [Example 139, 2-Fluoro-4-[5-[4-(2-furyl)-3-methylphenyl]-3-(trifluoromethyl)-1H-pyrazol-1-yl]benzenesulfonamide], for which the melting point fell in the range of 78 to 80 °C.

`CS(=O)(=O)c1ccc(-n2nc(C(F)(F)F)cc2-c2ccc(-c3cnco3)cc2)cc1` (as salt: hydrochloride) [Example 76, 1-[4-(Methylsulfonyl)phenyl]-5-[4-(5-oxazolyl)phenyl]-3-(trifluoromethyl)-1H-pyrazole] had a melting point of 178 to 180 °C. `CS(=O)(=O)c1ccc(-n2nc(C(F)(F)F)cc2-c2ccc(-c3cscn3)cc2)cc1F` [Example 99, 4-{4-[1-[3-Fluoro-4-(methylsulfonyl)phenyl]-3-(trifluoromethyl)-1H-pyrazol-5-yl]phenyl}-1,3-thiazole] had a melting point of 125 to 127 °C. Compound `CNC(=O)c1cc(-c2ccc(-c3ccco3)cc2)n(-c2ccc(S(C)(=O)=O)c(F)c2)n1` [Example 131, N-Methyl-1-[3-fluoro-4-(methylsulfonyl)phenyl]-5-[4-(2-furyl)phenyl]-1H-pyrazole-3-carboxamide] had a melting point of 196 to 198 °C. Next, `Cc1ccc(-c2ccc(S(C)(=O)=O)cc2)n1-c1ccc(-c2ccco2)c(Cl)c1` [Example 42, 1-[3-Chloro-4-(2-furyl)phenyl]-2-methyl-5-[4-(methylsulfonyl)phenyl]-1H-pyrrole]: 127 to 131 °C; `CCOC(=O)c1cc(-c2ccc(-c3ccco3)cc2)n(-c2ccc(S(C)(=O)=O)cc2)n1` [Example 65, Ethyl 5-[4-(2-furyl)phenyl]-1-[4-(methylsulfonyl)phenyl]-1H-pyrazole-3-carboxylate]: 180.9 to 181.1 °C.

Compound `NS(=O)(=O)c1ccc(-n2nc(C(F)(F)F)cc2-c2ccc(-c3cscn3)c(C(F)(F)F)c2)cc1F` [Example 176, 2-Fluoro-4-[5-[4-(1,3-thiazol-4-yl)-3-(trifluoromethyl)phenyl]-3-(trifluoromethyl)-1H-pyrazol-1-yl]benzenesulfonamide] registered a melting point of 140 to 142 °C. Compound `CS(=O)(=O)c1ccc(-n2nc(C(F)(F)F)cc2-c2ccc(-c3cc4ccccc4o3)cc2)cc1` [Example 4, 1-[4-(Methylsulfonyl)phenyl]-5-[4-(benzo[b]furan-2-yl)phenyl]-3-trifluoromethyl-1H-pyrazole] displayed a melting point of 137 to 138 °C. `CS(=O)(=O)c1ccc(-n2nc(C(F)(F)F)cc2-c2ccc(-c3cscn3)c(Cl)c2)cc1` (as salt: hydrochloride) [Example 119, 4-{2-Chloro-4-[1-[4-(methylsulfonyl)phenyl]-3-(trifluoromethyl)-1H-pyrazol-5-yl]phenyl}-1,3-thiazole] had a melting point of 128 to 130 °C. Turning to `NS(=O)(=O)c1ccc(-n2nc(C(F)(F)F)cc2-c2ccc(-c3cscn3)c(Cl)c2)cc1F` (as salt: hydrochloride) [Example 122, 2-Fluoro-4-[5-[3-chloro-4-(1,3-thiazol-4-yl)phenyl]-3-(trifluoromethyl)-1H-pyrazol-1-yl]benzenesulfonamide], the melting point was 173 to 175 °C. `CS(=O)(=O)c1ccc(-n2nccc2-c2ccc(-c3ccco3)cc2)cc1F` [Example 162, 1-[3-Fluoro-4-(methylsulfonyl)phenyl]-5-[4-(2-furyl)phenyl]-1H-pyrazole] displayed a melting point of 155 to 156 °C. Next, `Cc1onc(-c2ccc(-c3cscn3)cc2)c1-c1ccc(S(N)(=O)=O)c(F)c1` [Example 172, 2-Fluoro-4-{5-methyl-3-[4-(1,3-thiazol-4-yl)phenyl]-4-isoxazolyl}benzenesulfonamide]: 216 °C. Under `Cc1cc(-c2ccc(-c3ccco3)cc2)n(-c2ccc(S(C)(=O)=O)cc2)c1` [Example 59, 2-[4-(2-Furyl)phenyl]-4-methyl-1-[4-(methylsulfonyl)phenyl]-1H-pyrrole] stands 193 to 194 °C; under `NS(=O)(=O)c1ccc(-n2nc(C(F)(F)F)cc2-c2ccc(-c3cscn3)cc2)cc1F` (as salt: hydrochloride) [Example 103, 2-Fluoro-4-[5-[4-(1,3-thiazol-4-yl)phenyl]-3-(trifluoromethyl)-1H-pyrazol-1-yl]benzenesulfonamide], 168 to 170 °C; under `COC(=O)c1cc(-c2ccc(-c3nccs3)cc2)n(-c2ccc(S(N)(=O)=O)cc2)n1` [Example 88, Methyl 1-(4-sulfamoylphenyl)-5-[4-(2-thiazolyl)phenyl]-1H-pyrazole-3-carboxylate], 204 to 206 °C. Next, `Cc1cn(-c2ccc(S(N)(=O)=O)c(F)c2)c(-c2ccc(-c3cscn3)cc2)n1` [Example 179, 2-Fluoro-4-[4-methyl-2-[4-(4-thiazolyl)phenyl]-1H-imidazol-1-yl]benzenesulfonamide]: 145 to 147 °C; `Cc1nc(-c2ccc(-c3cc(C(F)(F)F)nn3-c3ccc(S(C)(=O)=O)c(F)c3)cc2)cs1` [Example 102, 4-{4-[1-[3-Fluoro-4-(methylsulfonyl)phenyl]-3-(trifluoromethyl)-1H-pyrazol-5-yl]phenyl}-2-methyl-1,3-thiazole]: 139 to 141 °C; `Cc1cc(-c2cc(C(F)F)nn2-c2ccc(S(C)(=O)=O)c(F)c2)ccc1-c1cscn1` [Example 194, 4-[4-[3-(Difluoromethyl)-1-[3-Fluoro-4-(methylsulfonyl)phenyl]-1H-pyrazol-5-yl]-2-methylphenyl]-1,3-thiazole]: 122.9 °C. Compound `CS(=O)(=O)c1ccc(C2=C(c3ccc(-c4ccsc4)cc3)C(=O)OC2)cc1` [Example 32, 3-[4-(3-Thienyl)phenyl]4-[4-(methylsulfonyl)phenyl]-2-(5H)-furanone] came in with a melting point of 220 to 222 °C. Under `CS(=O)(=O)c1ccc(-n2nc(C(F)(F)F)cc2-c2ccc(-c3cscn3)c(F)c2)cc1` (as salt: hydrochloride) [Example 124, 4-{2-Fluoro-4-[1-[4-(methylsulfonyl)phenyl]-3-(trifluoromethyl)-1H-pyrazol-5-yl]phenyl}-1,3-thiazole] stands 176 to 178 °C. The compound `CS(=O)(=O)c1ccc(-n2nc(C(F)(F)F)cc2-c2ccc(-c3cscn3)c(Cl)c2)cc1F` [Example 109, 4-{2-Chloro-4-[1-[3-fluoro-4-(methylsulfonyl)phenyl]-3-(trifluoromethyl)-1H-pyrazol-5-yl]phenyl}-1,3-thiazole] yielded a melting point of 108 to 110 °C.
